The source of these data is patent publication US8975399B2, “Benzenesulfon amide-compound treatment of a pathological condition linked to an excessive effect of TNF” (priority 2010, dated 2015).

T1 sequence (P01375 77-233 limits assumed): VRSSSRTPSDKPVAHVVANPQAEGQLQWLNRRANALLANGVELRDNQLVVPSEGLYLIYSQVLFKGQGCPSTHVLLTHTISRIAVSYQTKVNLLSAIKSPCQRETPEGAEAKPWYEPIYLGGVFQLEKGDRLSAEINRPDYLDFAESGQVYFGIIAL

This assay addresses T1, human TNF-alpha (Homo sapiens, UniProt P01375).
T1 construct: purchased R & D Diagnostics
Kind of assay: Apoptosis induced by human TNF-alpha on murine L929 cells (MTT survival). Type of assay: cell-based. The note with it: compound 10 μM, human TNF-alpha 0.150 ng/ml, 24 hours, % survival based on control cells without TNF. Here is the method:
The compounds are dissolved in DMSO to be used in vitro or in vivo by oral route, and in Cremophor® for their use in vivo by intraperitoneal route.
The cells were cultured in DMEM medium with 10% fcetal calf serum added. 4×10^4 cells in 100 μl of culture medium were exposed to human TNF-alpha (R & D Diagnostics) at 0.150 ng/ml for 24 hours in 96-well plates, and the tested compound was added at a final concentration of 100 μM or 10 μM. A solution of MTT dye was added (100 μl at 0.5 mg/ml) to each well over two hours in order to measure cell survival. The absorbance was measured at 570 nm using a BMG Fluostar microplate reader. The inhibitory activity of the products was expressed as a calculated % survival based on the control cells without the addition of TNF.
As for “3-(4-fluorophenyl)-4-oxo-4H-chromen-7-ylN-[(4-methylphenyl)sulphonyl]-beta-alaninate [Compound 24]”, the “% Inhibition 10 μM” value worked out at 50.26%.

Consider `CCOc1ccc(S(=O)(=O)Nc2cc3c(C(C)=O)c(C)oc3c3ccccc23)cc1` [16 (1), N-(3-acetyl-2-methylnaphthho[1,2-b]furan-5-yl)-4-ethoxybenzene sulphonamide], for which the “% Inhibition 10 μM” value is on record as 80.40%.

With `COc1ccc(S(=O)(=O)N(CC(=O)N2CCN(c3ccccc3OC)CC2)Cc2ccccc2)cc1C` [32 (3), N-benzyl-4-methoxy-N-{2-[4-(2-methoxyphenyl)-1-piperazinyl]-2-oxoethyl}-3-methylbenzenesulphonamide], the “% Inhibition 10 μM” value is reported as 69.73%.

`COc1ccccc1N1CCN(C(=O)CN(Cc2ccccc2)S(=O)(=O)c2ccc(Cl)cc2)CC1` [66 (14), N-benzyl-4-chloro-N-{2-[4-(2-methoxyphenyl)-1-piperazinyl]-2-oxoethyl}benzenesulphonamide]: the “% Inhibition 10 μM” value worked out at 67.4%.

With `COc1ccccc1N1CCN(C(=O)CN(Cc2ccccc2)S(=O)(=O)c2ccc(Br)cc2)CC1` [67 (15), N-benzyl-4-bromo-N-{2-[4-(2-methoxyphenyl)-1-piperazinyl]-2-oxoethyl}benzenesulphonamide], the “% Inhibition 10 μM” value is on record as 61.8%.

As to `Cc1ccc(S(=O)(=O)N(CC(=O)N2CCN(Cc3ccccc3)CC2)c2ccc(C)c(C)c2)cc1` [72 (21), N-[2-(4-benzyl-1-piperazinyl)-2-oxoethyl]-N-(3,4-dimethylphenyl)-4-methylbenzenesulphonamide], the “% Inhibition 10 μM” value is given as 53.4%.

As to `Cc1c(Cl)cccc1N(CC(=O)N1CCN(Cc2ccccc2)CC1)S(=O)(=O)c1ccccc1` [73 (23), N-[2-(4-benzyl-1-piperazinyl)-2-oxoethyl]-N-(3-chloro-2-methylphenyl)benzenesulphonamide], the “% Inhibition 10 μM” value came out at 44.8%.

Regarding `COc1ccc(S(=O)(=O)Nc2cc3c(C(C)=O)c(C)oc3cc2C)cc1` [Compound 1, N-(3-acetyl-2,6-dimethyl-1-benzofuran-5-yl)-4-methoxybenzene sulphonamide], the “% Inhibition 10 μM” value was found to be 71.15%.

Consider `COC(=O)c1c(C)oc2ccc(NS(=O)(=O)c3ccc(OC)cc3)cc12` [Compound 2, methyl 5-{[(4-methoxyphenyl)sulphonyl]amino}-2-methyl-1-benzofuran-3-carboxylate], for which the “% Inhibition 10 μM” value came to 57.51%.

For `COC(=O)c1c(C)oc2ccc(NS(=O)(=O)c3ccc(C)cc3)cc12` [Compound 3, methyl 2-methyl-5-{[(4-methylphenyl)sulphonyl]amino}-1-benzofuran-3-carboxylate], the “% Inhibition 10 μM” value came to 48.09%.

In the case of `Cc1ccc(-c2nnc(NCc3ccccc3)c3ccccc23)cc1S(=O)(=O)NCC1CCCO1` (stereo not shown) [Compound 23, 5-[4-(benzylamino)-1-phthalazinyl]-2-methyl-N-(tetrahydro-2-furanylmethyl)benzenesulphonamide], the “% Inhibition 10 μM” value was found to be 44.74%.

Consider `COc1ccc(NC(=O)CN(Cc2cccc(Cl)c2)S(=O)(=O)c2ccc(C)cc2)c(OC)c1` [Compound 33, N˜2˜-(3-chlorobenzyl)-N˜1˜-(2,4-dimethoxyphenyl)-N˜2˜-[(4-methylphenyl)sulphonyl]glycinamide], for which the “% Inhibition 10 μM” value is recorded as 52.4%.

Take `COc1ccc(OC)c(N(CC(=O)Nc2cccc(C(C)=O)c2)S(=O)(=O)c2ccc(C)cc2)c1` [Compound 34, N˜1˜-(3-acetylphenyl)-N-˜2˜-(2,5-dimethoxyphenyl)-N˜2˜-[(4-methylphenyl)sulphonyl]glycinamide]: the “% Inhibition 10 μM” value is 42.26%.

Take `COc1ccccc1N1CCN(C(=O)CN(Cc2ccc(F)cc2)S(=O)(=O)c2ccc(Cl)cc2)CC1` [Compound 71, 4-chloro-N-(4-fluorobenzyl)-N-{2-[4-(2-methoxyphenyl)-1-piperazinyl]-2-oxoethyl}benzenesulphonamide]: the “% Inhibition 10 μM” value was 53.6%.

Take `CC1CCN(C(=O)CN(Cc2ccc(Cl)c(Cl)c2)S(=O)(=O)c2ccc(Cl)cc2)CC1` [Compound 74, 4-chloro-N-(3,4-dichlorobenzyl)-N-[2-(4-methyl-1-piperidinyl)-2-oxoethyl]benzenesulphonamide]: the “% Inhibition 10 μM” value was 45.6%.

`COc1ccccc1N1CCN(C(=O)CN(Cc2ccccc2)S(=O)(=O)c2ccc(F)cc2)CC1` [Compound 75, N-benzyl-4-fluoro-N-{2-[4-(2-methoxyphenyl)-1-piperazinyl]-2-oxoethyl}benzenesulphonamide]: the “% Inhibition 10 μM” value stood at 44.7%.

Regarding `Cc1ccc(S(=O)(=O)N(CC(=O)N2CCN(Cc3ccccc3)CC2)c2cc(C)cc(C)c2)cc1` [Compound 76, N-[2-(4-benzyl-1-piperazinyl)-2-oxoethyl]-N-(3,5-dimethylphenyl)-4-methylbenzenesulphonamide], the “% Inhibition 10 μM” value was 35.5%.

For the molecule `COc1ccc(S(=O)(=O)N(CC(=O)N2CCN(c3ccccc3F)CC2)Cc2ccccc2)cc1` [Compound 77, N-benzyl-N-{2-[4-(2-fluorophenyl)-1-piperazinyl]-2-oxoethyl}-4-methoxybenzenesulphonamide], the “% Inhibition 10 μM” value was 32.8%.

`COc1ccc(S(=O)(=O)N(CC(=O)N2CCc3ccccc3C2)c2cc(C)cc(C)c2)cc1OC` [Compound 78, N-[2-(3,4-dihydro-2(1H)-isoquinolinyl)-2-oxoethyl]-N-(3,5-dimethylphenyl)-3,4-d imethoxybenzenesulphonamide]: the “% Inhibition 10 μM” value is recorded as 38.4%.

Turning to `COc1ccc(S(=O)(=O)N(CC(=O)N2CCN(c3ccccc3)CC2)c2ccc(C)cc2)cc1OC` [Compound 79, 3,4-dimethoxy-N-(4-methylphenyl)-N-[2-oxo-2-(4-phenyl-1-piperazinyl)ethyl]benzenesulphonamide], the “% Inhibition 10 μM” value was 36.8%.

Consider `Cc1ccc(CN(CC(=O)N2CCN(c3ccc(F)cc3)CC2)S(=O)(=O)c2ccccc2)cc1` [Compound 80, N-{2-[4-(4-fluorophenyl)-1-piperazinyl]-2-oxoethyl}-N-(4-methylbenzyl)benzenesulphonamide], for which the “% Inhibition 10 μM” value is 34.3%.

Consider `Cc1ccc(S(=O)(=O)N(CC(=O)N2CCC(Cc3ccccc3)CC2)c2ccc(F)cc2)cc1` [Compound 81, N-[2-(4-benzyl-1-piperidinyl)-2-oxoethyl]-N-(4-fluorophenyl)-4-methylbenzenesulphonamide], for which the “% Inhibition 10 μM” value is recorded as 34.8%.

On to `Cc1ccc(S(=O)(=O)N(CC(=O)N2CCN(Cc3ccccc3)CC2)c2ccccc2C)cc1` [Compound 82, N-[2-(4-benzyl-1-piperazinyl)-2-oxoethyl]-4-methyl-N-(2-methylphenyl)benzenesulphonamide], for which the “% Inhibition 10 μM” value was found to be 34.6%.

Consider `COc1ccc(S(=O)(=O)N(CC(=O)N2CCN(c3ccc(F)cc3)CC2)Cc2ccccc2)cc1OC` [Compound 84, N-benzyl-N-{2-[4-(4-fluorophenyl)-1-piperazinyl]-2-oxoethyl}-3,4-dimethoxybenzenesulphonamide], for which the “% Inhibition 10 μM” value was 33.6%.

As for “N-(1,2-dihydro-5-acenaphthhylenyl)-2.4,6-trimethylbenzenesulphonamide [Compound 26]”, the “% Inhibition 10 μM” value turned out to be 43.84%.

Turning to “N-(1′,2-dihydroxy-1.2′-binaphthhalen-4′-yl)-4-methoxybenzene-sulphonamide [Compound 21]”, the “% Inhibition 10 μM” value came to 53.45%.

Take “N-[2-(4-benzyl-1-piperazinyl)-2-oxoethyl]-N-(3-chlorophenyl)-4-methyl benzenesulphonamide [65 (13)]”: the “% Inhibition 10 μM” value was found to be 61.4%.

In the case of “N-[2-(4-benzyl-1-piperazinyl)-2-oxoethyl]-N-(4-chlorophenyl)-4-methyl benzenesulphonamide [68 (16)]”, the “% Inhibition 10 μM” value is 56.2%.

“N-benzyl-4-methyl-N-[2-oxo-2-(4-phenyl-1-piperazinyl)pethyl]benzenesulphonamide [69 (18)]”: the “% Inhibition 10 μM” value is listed as 61.3%.

For “N-{2-[4-(2-fluorophenyl)-1-piperazinyl]-2-oxoethyl}-N-(4-methylbenzyl) benzenesulphonamide [70 (19)]”, the “% Inhibition 10 μM” value is on record as 54.0%.

“N-{2-[4-(diphenylmethyl)-1-piperazinyl]-2-oxoethyl}-N,4-dimethyl benzenesulphonamide [Compound 85]”: the “% Inhibition 10 μM” value is listed as 32.1%.
